Test results taken from patent US12521440B2, “Degradation of bruton's tyrosine kinase (BTK) by conjugation of BTK inhibitors with E3 ligase ligand and methods of use” (BeOne Medicines I GmbH, priority 2021, dated 2026).
pIC50: −log10 of the molar value.

What was measured:
[1] = molecular target: T1, BTK (Homo sapiens, UniProt Q06187); experiment: BTK degradation in TMD-8 cells (HTRF assay); assay type: cell-based; settings: 6 h treatment, HTRF BTK degradation IC50 (DC50)
T1 construct: endogenous in cells; host or cells: TMD-8 cells
T1 sequence (Q06187 whole entry): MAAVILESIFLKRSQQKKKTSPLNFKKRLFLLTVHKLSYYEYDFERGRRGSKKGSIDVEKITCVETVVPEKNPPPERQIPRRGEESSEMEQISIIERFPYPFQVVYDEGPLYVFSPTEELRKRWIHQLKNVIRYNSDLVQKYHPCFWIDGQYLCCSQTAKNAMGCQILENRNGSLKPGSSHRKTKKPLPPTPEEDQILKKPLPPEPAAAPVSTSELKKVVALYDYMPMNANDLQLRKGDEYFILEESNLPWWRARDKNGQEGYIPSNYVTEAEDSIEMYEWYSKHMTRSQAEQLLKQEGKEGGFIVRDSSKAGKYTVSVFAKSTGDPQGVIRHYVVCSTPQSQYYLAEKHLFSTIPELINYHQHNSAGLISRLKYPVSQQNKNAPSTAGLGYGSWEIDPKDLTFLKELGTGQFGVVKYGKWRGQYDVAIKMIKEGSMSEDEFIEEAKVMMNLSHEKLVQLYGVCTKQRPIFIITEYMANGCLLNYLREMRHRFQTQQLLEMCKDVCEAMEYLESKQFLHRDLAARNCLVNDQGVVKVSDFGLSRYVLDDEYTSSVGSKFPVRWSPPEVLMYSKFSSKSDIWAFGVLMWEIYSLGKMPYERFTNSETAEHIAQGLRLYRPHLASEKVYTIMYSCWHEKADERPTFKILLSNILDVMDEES
Method: TMD-8 cells were treated with compounds diluted in 0.2% DMSO, dilution was done according to the following protocol: (1) making 500×stock solution in DMSO from 1 mM by 6-fold dilution, total 8 doses were included; (2) making 2×solution in cell culture medium by transferring 0.5 μl 500×stock solution into 125 μl medium; (3) adding 15 μl of 2×solution to cells for incubation of 6 h.
After 6 h treatment, 10 μl 4×lysis buffer was added to each well; the plate was sealed and incubated for 30 min at room temperature on a plate shaker; Once the cells was lysed, 16 μL of cell lysate were transferred to a PE 384-well HTRF detection plate; 4 μL of pre-mixed HTRF antibodies were added to each well; the plate was covered with a plate sealer, and then spinned at 1000 rpm for 1 min, then incubated overnight at room temperature; the results were read on BMG PheraStar with HTRF protocol (337 nm-665 nm-620 nm).
(§1) The IC50 (DC50) value of a compound can be obtained by fitting the following equation Y=Bottom+(TOP−Bottom)/(1+((IC50/X)^hillslope)) wherein, X and Y are known values, and IC50, Hillslope, Top and Bottom are the parameters obtained by fitting with software. Y is the inhibition percentage (calculated from the equation), X is the concentration of the compound; IC50 is the concentration of the compound when the 50% inhibition is reached. The smaller the IC50 value is, the stronger the inhibitory ability of the compound is. Vice versa, the higher the IC50 value is, the weaker the ability the inhibitory ability of the compound is; Hillslope represents the slope of the fitted curve, generally around 1*; Bottom represents the minimum value of the curve obtained by data fitting, which is generally 0%±20%; Top represents the maximum value of the curve obtained by data fitting, which is generally 100%±20%. The experimental data were fitted by calculating and analyzing with Dotmatics data analysis software. HEK-293 Cell Treatment

[2] = system: HEK-293 cells; experiment: HEK-293 cytotoxicity detection (CellTiter-Glo); assay type: cell-based; settings: Homo sapiens, 72 h incubation, read-out: HEK293
From the text: as §1
HEK-293 cells were treated with compounds diluted in 0.2% DMSO, dilution was done according to the following protocol: (1) making 500×stock solution in DMSO from 5 mM by 4-fold dilution, total 8 doses were included; (2) making 2×solution in cell culture medium by transferring 0.5 ul 500×stock solution into 125 ul medium; (3) adding 50 ul of 2×solution to cells for incubation of 72 h.
25 μl of the CellTiter-Glo® Reagent [(Promega)—Cat No. G7572] was added to each well in the 96-well plate. The contents were mixed for 2 minutes on an orbital shaker to induce cell lysis. The plate was then allowed to incubate at room temperature for 10 minutes to stabilize luminescent signal. Luminescence was recorded on BMG PheraStar with luminescence protocol.
as §1, with “IC50” for “IC50 (DC50)”, “Wherein,” for “wherein,”, “software.” for “software. HEK-293 Cell Treatment”

Row | SMILES | DC50 [1] | pIC50 [2]
1 | Cc1cc(-c2cc(Nc3ccc(N4CCN(CCc5ccc(C6CCC(=O)NC6=O)c(F)c5)CC4)cn3)ncn2)ccc1[C@@H](C)NC(=O)c1nc(C(C)(C)C)no1 (stereo partly drawn) [Example 47, 3-(tert-butyl)-N-((1R)-1-(4-(6-((5-(4-(4-(2,6-dioxopiperidin-3-yl)-3-fluorophenethyl)piperazin-1-yl)pyridin-2-yl)amino)pyrimidin-4-yl)-2-methylphenyl)ethyl)-1,2,4-oxadiazole-5-carboxamide] | 0.96 nM | < 5.00
2 | Cc1cc(-c2cc(Nc3ccc(N4CCN(C(=O)C5CCN(c6ccc(N7CCC(=O)NC7=O)cc6)C5)CC4)cn3)ncn2)ccc1[C@@H](C)NC(=O)c1nc(C(C)(C)C)no1 (stereo partly drawn) [Example 29, 3-(tert-butyl)-N-((1R)-1-(4-(6-((5-(4-(1-(4-(2,4-dioxotetrahydropyrimidin-1(2H)-yl)phenyl)pyrrolidine-3-carbonyl)piperazin-1-yl)pyridin-2-yl)amino)pyrimidin-4-yl)-2-methylphenyl)ethyl)-1,2,4-oxadiazole-5-carboxamide] | 0.836 nM | < 5.00
3 | Cc1cc(-c2cc(Nc3ccc(N4CCN(CCc5ccc6c(c5)oc(=O)n6C5CCC(=O)NC5=O)CC4)cn3)ncn2)ccc1[C@@H](C)NC(=O)c1nc(C(C)(C)C)no1 (stereo partly drawn) [Example 49, 3-(tert-butyl)-N-((1R)-1-(4-(6-((5-(4-(2-(3-(2,6-dioxopiperidin-3-yl)-2-oxo-2,3-dihydrobenzo[d]oxazol-6-yl)ethyl)piperazin-1-yl)pyridin-2-yl)amino)pyrimidin-4-yl)-2-methylphenyl)ethyl)-1,2,4-oxadiazole-5-carboxamide] | 0.486 nM | < 5.00
4 | Cc1cc(-c2cc(Nc3ccc(N4CCN(CC5CCN(c6ccc(N7CCC(=O)NC7=O)c(F)c6)CC5)CC4)cn3)ncn2)ccc1[C@@H](C)NC(=O)c1nc(C(C)(C)C)no1 [Example 17, (R)-3-(tert-butyl)-N-(1-(4-(6-((5-(4-((1-(4-(2,4-dioxotetrahydropyrimidin-1(2H)-yl)-3-fluorophenyl)piperidin-4-yl)methyl)piperazin-1-yl)pyridin-2-yl)amino)pyrimidin-4-yl)-2-methylphenyl)ethyl)-1,2,4-oxadiazole-5-carboxamide] | 2.2 nM | < 5.00
5 | Cc1cc(-c2cc(Nc3ccc(N4CCN([C@H]5C[C@@H](c6ccc(N[C@@H]7CCC(=O)NC7=O)cc6)C5)CC4)cn3)ncn2)ccc1[C@@H](C)NC(=O)c1nc(C(C)(C)C)no1 [Example 52, 3-(tert-butyl)-N—((R)-1-(4-(6-((5-(4-((1S,3s)-3-(4-(((R)-2,6-dioxopiperidin-3-yl)amino)phenyl)cyclobutyl)piperazin-1-yl)pyridin-2-yl)amino)pyrimidin-4-yl)-2-methylphenyl)ethyl)-1,2,4-oxadiazole-5-carboxamide] | 3.04 nM | < 5.00
6 | Cc1cc(-c2ccnc(Nc3ccc(N4CCN(CC5CCN(c6ccc(N7CCC(=O)NC7=O)cc6)CC5)CC4)cc3)n2)ccc1[C@@H](C)NC(=O)c1nc(C(C)(C)C)no1 [Example 69, (R)-3-(tert-butyl)-N-(1-(4-(2-((4-(4-((1-(4-(2,4-dioxotetrahydropyrimidin-1(2H)-yl)phenyl)piperidin-4-yl)methyl)piperazin-1-yl)phenyl)amino)pyrimidin-4-yl)-2-methylphenyl)ethyl)-1,2,4-oxadiazole-5-carboxamide] | 2.42 nM | < 5.00
7 | Cc1cc(-c2cc(Nc3ccc(N4CCN(C(=O)C5CCN(c6ccc(N7CCC(=O)NC7=O)cc6)CC5)CC4)cn3)ncn2)ccc1[C@@H](C)NC(=O)c1nc(C(C)(C)C)no1 [Example 28, (R)-3-(tert-butyl)-N-(1-(4-(6-((5-(4-(1-(4-(2,4-dioxotetrahydropyrimidin-1(2H)-yl)phenyl)piperidine-4-carbonyl)piperazin-1-yl)pyridin-2-yl)amino)pyrimidin-4-yl)-2-methylphenyl)ethyl)-1,2,4-oxadiazole-5-carboxamide] | 1.66 nM | < 5.00
8 | COc1nc(Nc2cc(-c3ccc([C@@H](C)NC(=O)c4nc(C(C)(C)C)no4)c(C)c3)ncn2)ccc1N1CCN(CC2CCN(c3ccc(N4CCC(=O)NC4=O)cc3)CC2)CC1 [Example 63] | 0.979 nM | 6.21
